Assay results taken from ChEMBL document CHEMBL3632471, “Inhibitory effects of compounds from Styrax obassia on NO production” (Bioorg Med Chem Lett, 2015).
Active and inactive are the calls of the source. The rule behind the calls is not given here.

Columns and labels:
RAW264.7 [1] = assay: Antiinflammatory activity in mouse RAW264.7 cells assessed as inhibition of LPS-induced NO production at 30 ug/ml after 24 hrs by Griess reaction; assay type: functional, cell-based
[2] = (§1) Cytotoxicity against mouse RAW264.7 cells assessed as cell viability at 3 to 30 ug/ml after 24 hrs by MTT assay; assay type: cell-based; details: RAW264.7 cells, read-out: Activity
RAW264.7 [3] = assay: Antiinflammatory activity in mouse RAW264.7 cells assessed as inhibition of LPS-induced NO production at 3 to 30 ug/ml after 24 hrs by Griess reaction; assay type: functional
RAW264.7 [4] = assay: as §1; assay type: cell-based; details: raw264.7, 24 h
RAW264.7 [5] = assay: Antiinflammatory activity in mouse RAW264.7 cells assessed as inhibition of LPS-induced iNOS expression after 18 hrs by Western blot analysis; assay type: functional, cell-based
RAW264.7 [6] = assay: Antiinflammatory activity in mouse RAW264.7 cells assessed as inhibition of LPS-induced COX2 expression at 3 to 30 ug/ml after 18 hrs by Western blot analysis; assay type: functional, cell-based

COc1cc([C@@H]2OCC3C(=O)OCC32)ccc1O (some centres undefined)
inhibition (RAW264.7 [1]): inactive | viability at 24 h [2]: 60%

COc1cc(CCCO)cc2cc(-c3ccc4c(c3)OCO4)oc12
inhibition (RAW264.7 [3]): inactive

COc1cc([C@H]2OC[C@H]3[C@@H]2CO[C@@H]3c2cc(OC)c(O)c(OC)c2)cc(OC)c1O
inhibition (RAW264.7 [3]): inactive

COc1ccc(-c2cc3cc(CCCO)cc(OC)c3o2)cc1OC
inhibition (RAW264.7 [1]): inactive

COc1ccc(-c2cc3cc([C@@H](O)CCO)cc(OC)c3o2)cc1OC
inhibition (RAW264.7 [1]): inactive | Activity (RAW264.7 [4]): Non-toxic | inhibition (RAW264.7 [5]): Dose-dependent effect | inhibition (RAW264.7 [6]): Active

COc1cc(C(O)CCO)cc2cc(-c3ccc4c(c3)OCO4)oc12 (centres undefined)
inhibition (RAW264.7 [3]): inactive

COc1cc([C@H]2OC[C@H]3[C@@H]2CO[C@H]3c2ccc(O)c(OC)c2)ccc1O (stereo in doubt; 12)
inhibition (RAW264.7 [3]): inactive

COc1cc(C[C@H]2CO[C@H](c3ccc(O)c(OC)c3)[C@H]2CO)ccc1O
inhibition (RAW264.7 [3]): inactive

COc1cc(-c2oc3c(OC)cc(CCCO)cc3c2C=O)ccc1O
inhibition (RAW264.7 [3]): inactive

COc1cc([C@H]2OC[C@H]3[C@@H]2CO[C@H]3c2ccc(O)c(OC)c2)ccc1O (stereo in doubt; 11)
inhibition (RAW264.7 [3]): inactive
